Assay results as given in patent US20260209214A1, “LSD1 MODULATORS” (RECURSION PHARMACEUTICALS, INC., priority 2022, published 2026).

The compounds below were run against Recombinant human LSD1 (Homo sapiens, UniProt O60341) (assay: LSD1 inhibition assay (HTRF LSD1 Histone H3K4 mono-demethylation assay, me1->me0)). Conditions: 20 nM recombinant human LSD1, 95 nM H3K4(me1) biotinylated peptide, 15 min preincubation, 60 min at 25° C., read-out: LSD1 inhibition IC50 (nM range).
Assay type: biochemical
Outline: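 HTRF demethylation (me1->me0) read-out: streptavidin-XL665 and anti-H3K4me0 cryptate added after reaction, ratio measured after 90 min dark. Reaction: 95 nM H3K4me1 biotin-peptide, 20 nM LSD1 (15-min compound pre-incubation), 60 min, 25 °C, buffer pH 8.5 plus FAD and DTT; 4-parameter logistic IC50.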
Work on `CC(C)C1(O)CN(c2ccc(CC3CNCCO3)cc2-c2ccc(C#N)c(F)c2)C1` (centres unmarked) [Example 122, 3-fluoro-2′-[3-hydroxy-3-(propan-2-yl)azetidin-1-yl]-5′-[(morpholin-2-yl)methyl]-[1,1′-biphenyl]-4-carbonitrile] yielded an IC50 of 100 to 1000 nM.
`N#Cc1ccc(-c2cc(CC3CNCCO3)ccc2N[C@H]2CCCOC2)cc1F` (stereo partly drawn) [Example 123, 3-fluoro-5′-[(morpholin-2-yl)methyl]-2′-{[(3S)-oxan-3-yl]amino}-[1,1′-biphenyl]-4-carbonitrile] was tested, and the IC50 was > 1000 nM.
`Cc1ccncc1-c1ccc(CC2CNCCO2)cc1-c1ccc(C#N)c(F)c1` (centres unmarked) [Example 124, 3-fluoro-2′-(4-methylpyridin-3-yl)-5′-[(morpholin-2-yl)methyl]-[1,1′-biphenyl]-4-carbonitrile] gave an IC50 of 100 to 1000 nM.
In the case of `CNC1CCN(c2cccc(-c3ccc(C#N)c(F)c3)c2C2CC2)CC1` [Example 125, 2'-cyclopropyl-3-fluoro-3'-[4-(methylamino)piperidin-1-yl]-[1,1'-biphenyl]-4-carbonitrile], the IC50 is reported as 100 to 1000 nM.
For `COCC1(O)CCN(c2ccc(CC3CNCCO3)cc2-c2ccc(C#N)c(F)c2)CC1` (centres unmarked) [Example 126, COCC1(O)CCN(CC1)c2ccc(CC3CNCCO3)cc2c4ccc(C#N)c(F)c4], the IC50 was 100 to 1000 nM.
With `N#Cc1ccc(-c2cc(CC3CNCCO3)ccc2N2CC3(CCOC3)C2)cc1F` (centres unmarked) [Example 127] the IC50 was 100 to 1000 nM.
Compound `N#Cc1ccc(-c2cccc(CC3CNCCO3)c2-c2cnccn2)cc1F` (centres unmarked) [Example 128, 3-fluoro-3′-[(morpholin-2-yl)methyl]-2′-(pyrazin-2-yl)-[1,1′-biphenyl]-4-carbonitrile] has an IC50 of 25 to 100 nM.
`COCc1cc(-c2ccc(CC3CNCCO3)cc2-c2ccc(C#N)c(F)c2)on1` (centres unmarked) [Example 129, 3-fluoro-2′-[3-(methoxymethyl)-1,2-oxazol-5-yl]-5′-[(morpholin-2-yl)methyl]-[1,1′-biphenyl]-4-carbonitrile] gave an IC50 of 100 to 1000 nM.
For `COCc1ncc(-c2ccc(CC3CNCCO3)cc2-c2ccc(C#N)c(F)c2)o1` (centres unmarked) [Example 130, 3-fluoro-2′-[2-(methoxymethyl)-1,3-oxazol-5-yl]-5′-[(morpholin-2-yl)methyl]-[1,1′-biphenyl]-4-carbonitrile], the IC50 was > 1000 nM.
With `N#Cc1ccc(-c2cc(C[C@@H]3CN4CCC[C@H]4CO3)ccc2N2CCC2)cc1F` [Example 131, 5′-{[(3R,8aS)-hexahydro-1H-pyrrolo[2,1-c][1,4]oxazin-3-yl]methyl}-2′-(azetidin-1-yl)-3-fluoro-[1,1′-biphenyl]-4-carbonitrile] the IC50 was > 1000 nM.
With `COc1cnc(-c2ccc(CC3CNCCO3)cc2-c2ccc(C#N)c(F)c2)cn1` (centres unmarked) [Example 132, 3-fluoro-2′-(5-methoxypyrazin-2-yl)-5′-[(morpholin-2-yl)methyl]-[1,1′-biphenyl]-4-carbonitrile] the IC50 was > 1000 nM.
Work on `COc1ccc(-c2ccc(CC3CNCCO3)cc2-c2ccc(C#N)c(F)c2)nc1` (centres unmarked) [Example 133, 3-fluoro-2′-(5-methoxypyridin-2-yl)-5′-[(morpholin-2-yl)methyl]-[1,1′-biphenyl]-4-carbonitrile] yielded an IC50 of 100 to 1000 nM.
With `N#Cc1ccc(-c2cc(CC3CNCCO3)ccc2N2CCC2)cc1Cl` (centres unmarked) [Example 134, 4-[2-(azetidin-1-yl)-5-(morpholin-2-ylmethyl)phenyl]-2-chloro-benzonitrile] the IC50 was > 1000 nM.
With `N#Cc1ccc(-c2cc(CC3CNC4(CC4)CO3)ccc2N2CCC2)cc1F` (centres unmarked) [Example 135, 2′-(azetidin-1-yl)-3-fluoro-5′-({7-oxa-4-azaspiro[2.5]octan-6-yl}methyl)-[1,1′-biphenyl]-4-carbonitrile] the IC50 was > 1000 nM.
In the case of `CC(C)(c1ccc(N2CCC2)c(-c2ccc(C#N)c(F)c2)c1)C1CNCCO1` (centres unmarked) [Example 136, 2′-(azetidin-1-yl)-3-fluoro-5′-[2-(morpholin-2-yl)propan-2-yl]-[1,1′-biphenyl]-4-carbonitrile], the IC50 is reported as > 1000 nM.
`N#Cc1ccc(-c2cc(CC3CNCCO3)ccc2N2CC(CO)C2)cc1F` (centres unmarked) [Example 137, 3-fluoro-2′-[3-(hydroxymethyl)azetidin-1-yl]-5′-[(morpholin-2-yl)methyl]-[1,1′-biphenyl]-4-carbonitrile] gave an IC50 of 100 to 1000 nM.
`CC1(O)CCN(c2ccc(CC3CNCCO3)cc2-c2ccc(C#N)c(F)c2)CC1` (centres unmarked) [Example 138, 3-fluoro-2′-(4-hydroxy-4-methylpiperidin-1-yl)-5′-[(morpholin-2-yl)methyl]-[1,1′-biphenyl]-4-carbonitrile] was tested, and the IC50 was 25 to 100 nM.
`CC1(C)CNCC(Cc2ccc(N3CCC3)c(-c3ccc(C#N)c(F)c3)c2)O1` (centres unmarked) [Example 139, 2'-(azetidin-1-yl)-5'-[(6,6-dimethylmorpholin-2-yl)methyl]-3-fluoro-[1,1'-biphenyl]-4-carbonitrile] showed an IC50 of 100 to 1000 nM.
For `COC1CN(c2ccc(CC3CNCCO3)cc2-c2ccc(C#N)c(F)c2)C1` (centres unmarked) [Example 140, 3-fluoro-2′-(3-methoxyazetidin-1-yl)-5′-[(morpholin-2-yl)methyl]-[1,1′-biphenyl]-4-carbonitrile], the IC50 was > 1000 nM.
With `N#Cc1ccc(-c2cc(CC3CNCCO3)ccc2C2CC2)cc1F` (centres unmarked) [Example 141, 2′-cyclopropyl-3-fluoro-5′-[(morpholin-2-yl)methyl]-[1,1′-biphenyl]-4-carbonitrile] the IC50 was 100 to 1000 nM.
For `COc1ccc(CC2CNCCO2)cc1-c1ccc(C#N)c(F)c1` (centres unmarked) [Example 142, 3-fluoro-2′-methoxy-5′-[(morpholin-2-yl)methyl]-[1,1′-biphenyl]-4-carbonitrile], the IC50 was > 1000 nM.
`N#Cc1ccc(-c2cc(CC3CNCCO3)ccc2N2CCCOCC2)cc1F` (centres unmarked) [Example 143, 3-fluoro-5'-[(morpholin-2-yl)methyl]-2'-(1,4-oxazepan-4-yl)-[1,1'-biphenyl]-4-carbonitrile] was tested, and the IC50 was 100 to 1000 nM.
With `CC(c1ccc(N2CCC2)c(-c2ccc(C#N)c(F)c2)c1)C1CNCCO1` (centres unmarked) [Example 144, 2′-(azetidin-1-yl)-3-fluoro-5′-[1-(morpholin-2-yl)ethyl]-[1,1′-biphenyl]-4-carbonitrile] the IC50 was > 1000 nM.
`N#Cc1ccc(-c2cc(CC3CNCCO3)ccc2C2CCCO2)cc1F` (centres unmarked) [Example 145, 3-fluoro-5′-[(morpholin-2-yl)methyl]-2′-(oxolan-2-yl)-[1,1′-biphenyl]-4-carbonitrile] was tested, and the IC50 was > 1000 nM.
`CN1CCOC(Cc2ccc(N3CCC3)c(-c3ccc(C#N)c(F)c3)c2)C1` (centres unmarked) [Example 146, 2′-(azetidin-1-yl)-3-fluoro-5′-[(4-methylmorpholin-2-yl)methyl]-[1,1′-biphenyl]-4-carbonitrile] was tested, and the IC50 was > 1000 nM.
`N#Cc1ccc(-c2cc(CC3CNCCO3)ccc2N2CCCC2)cc1F` (centres unmarked) [Example 147, 3-fluoro-5′-[(morpholin-2-yl)methyl]-2′-(pyrrolidin-1-yl)-[1,1′-biphenyl]-4-carbonitrile] gave an IC50 of 100 to 1000 nM.
For `N#Cc1ccc(-c2cccc(CC3CNCCO3)c2-c2ccncc2)cc1F` (centres unmarked) [Example 148, 3-fluoro-3′-[(morpholin-2-yl)methyl]-2′-(pyridin-4-yl)-[1,1′-biphenyl]-4-carbonitile], the IC50 was 100 to 1000 nM.
`CC(C)(C)N1CCN(c2ccc(CC3CNCCO3)cc2-c2ccc(C#N)c(F)c2)CC1` (centres unmarked) [Example 149, 2′-(4-tert-butylpiperazin-1-yl)-3-fluoro-5′-[(morpholin-2-yl)methyl]-[1,1′-biphenyl]-4-carbonitrile] gave an IC50 of 100 to 1000 nM.
In the case of `N#Cc1ccc(-c2cc(CC3CNCCO3)ccc2C2COC2)cc1F` (centres unmarked) [Example 150, 3-fluoro-5'-[(morpholin-2-yl)methyl]-2'-(oxetan-3-yl)-[1,1'-biphenyl]-4-carbonitrile], the IC50 is reported as > 1000 nM.
